In patent publication US20190233884A1 (University of Southern California, priority 2016, published 2019):

Test system: patients with refractory metastatic colorectal cancer (mCRC)
Test: PFS, OS and disease control in the training (evaluation) cohort of refractory mCRC patients receiving TAS-102 (n=52, Japan), by baseline characteristics, SNP genotype and toxicity
Assay type: in vivo, human
Settings: for OS HR (95% CI)‡ / PFS HR (95% CI) ‡: multivariable; for OS HR (95% CI)† / PFS HR (95% CI) †: univariate
Experimental: All patients underwent the treatment in salvage-line setting. […]
Genomic DNA was extracted from peripheral whole blood in patients of all cohorts using the QIAmp Kit (Qiagen, Valencia, Calif., USA) according to the manufacturer's protocol (www.qiagen.com). The candidate SNPs were genotyped using PCR-based direct DNA sequence analysis by ABI 3100A Capillary Genetic Analyzer and Sequencing Scanner v1.0 (Applied Biosystems). Amplification of extracted DNA was carried out using both forward and reverse primers for each gene polymorphism as shown in Table 1. […] The investigators analyzing SNPs were blinded to the clinical data of the study patients.
The primary endpoint in this study was progression-free survival (PFS), and the secondary endpoints were overall survival (OS) and disease control rate (DCR). PFS was calculated from the date of starting treatment to the first observation of disease progression or death from any cause. If a patient had no disease progression or death, PFS was censored at the date of last follow up. OS was calculated from the date of starting treatment until the date of death from any cause or the date of the last follow-up, at which point OS was censored. The disease control rate (DCR) was defined as the proportion of patients who achieved a stable disease (SD) or […] according to RECISTv1.1. Chi-square test was used to examine the difference in baseline patient characteristics among the three cohorts. Allelic distribution of all SNPs by ethnicity for deviation from Hardy-Weinberg equilibrium and the allelic frequencies of SNPs were tested using the Chi-square tests with one degree of freedom. The associations between candidate SNPs and disease control, and toxicities were examined using contingency tables and Fisher's exact test. The associations of SNPs with PFS and OS were analysed using Kaplan-Meier curves and the log-rank test. Because the true mode of inheritance of candidate SNPs was not established yet, a codominant or dominant genetic model if appropriate was considered.
All patients underwent the treatment in salvage-line setting. […] In all patients, adverse events were graded according to the Common Terminology Criteria for Adverse Events, version 4.0. […]
Genomic DNA was extracted from peripheral whole blood in patients of all cohorts using the QIAmp Kit (Qiagen, Valencia, Calif., USA) according to the manufacturer's protocol (www.qiagen.com). The candidate SNPs were tested using PCR-based direct DNA sequence analysis by ABI 3100A Capillary Genetic Analyzer and Sequencing Scanner v1.0 (Applied Biosystems). […] The investigators analyzing SNPs were blinded to the clinical data.
The primary endpoint in this study was progression-free survival (PFS), and the secondary endpoints were overall survival (OS) and disease control rate (DCR).

Substance: Trifluridine/tipiracil [TAS-102]
- Disease Control Rate PD: 10 (71%)
- Disease Control Rate SD: 4 (29%)
- OS median, months (95% CI) (ATR rs2227928 A/A): 5.7 (2.7, 12.4) months
- PFS median, months (95% CI) (ATR rs2227928 A/A): 2.1 (1.6, 3.4) months
- OS median, months (95% CI) (ATR rs2227928 A/G): 8.1 (4.9, 15.6) months
- PFS median, months (95% CI) (ATR rs2227928 A/G): 2.9 (1.6, 3.4) months
- OS HR (95% CI)‡ (ATR rs2227928 A/G vs A/A): 0.68 (0.26, 1.74)
- PFS HR (95% CI) ‡ (ATR rs2227928 A/G vs A/A): 0.82 (0.41, 1.63)
- OS HR (95% CI)† (ATR rs2227928 A/G vs A/A): 0.71 (0.28, 1.78)
- PFS HR (95% CI) † (ATR rs2227928 A/G vs A/A): 0.75 (0.38, 1.51)
- OS median, months (95% CI) (ATR rs2227928 Any G): 8.3 (6.3, 15.6) months
- PFS median, months (95% CI) (ATR rs2227928 Any G): 3.0 (2.1, 3.7) months
- OS HR (95% CI)‡ (ATR rs2227928 Any G vs A/A): 0.50 (0.20, 1.27)
- PFS HR (95% CI) ‡ (ATR rs2227928 Any G vs A/A): 0.67 (0.35, 1.29)
- OS HR (95% CI)† (ATR rs2227928 Any G vs A/A): 0.57 (0.24, 1.40)
- PFS HR (95% CI) † (ATR rs2227928 Any G vs A/A): 0.64 (0.33, 1.23)
- PFS median, months (95% CI) (ATR rs2227928 G/G): 3.7 (2.1, 6.6) months
- OS HR (95% CI)‡ (ATR rs2227928 G/G vs A/A): 0.18 (0.04, 0.93)
- PFS HR (95% CI) ‡ (ATR rs2227928 G/G vs A/A): 0.43 (0.17, 1.08)
- OS HR (95% CI)† (ATR rs2227928 G/G vs A/A): 0.28 (0.06, 1.31)
- PFS HR (95% CI) † (ATR rs2227928 G/G vs A/A): 0.46 (0.19, 1.10)
- OS median, months (95% CI) (BRCA1 rs16941 Any C): 8.3 (5.3, 14.8+) months
- PFS median, months (95% CI) (BRCA1 rs16941 Any C): 3.0 (2.0, 4.2) months
- OS HR (95% CI)‡ (BRCA1 rs16941 Any C vs T/T): 1.14 (0.46, 2.82)
- PFS HR (95% CI) ‡ (BRCA1 rs16941 Any C vs T/T): 1.04 (0.54, 2.00)
- OS HR (95% CI)† (BRCA1 rs16941 Any C vs T/T): 0.90 (0.38, 2.15)
- PFS HR (95% CI) † (BRCA1 rs16941 Any C vs T/T): 0.87 (0.47, 1.64)
- PFS median, months (95% CI) (BRCA1 rs16941 C/C): 2.7 (2.0, 4.2) months
- OS HR (95% CI)‡ (BRCA1 rs16941 C/C vs T/T): 0.37 (0.05, 3.07)
- PFS HR (95% CI) ‡ (BRCA1 rs16941 C/C vs T/T): 1.66 (0.58, 4.74)
- OS HR (95% CI)† (BRCA1 rs16941 C/C vs T/T): 0.28 (0.04, 2.20)
- PFS HR (95% CI) † (BRCA1 rs16941 C/C vs T/T): 1.06 (0.38, 2.90)
- OS median, months (95% CI) (BRCA1 rs16941 T/C): 8.1 (3.4, 14.8+) months
- PFS median, months (95% CI) (BRCA1 rs16941 T/C): 3.2 (1.8, 4.6) months
- OS HR (95% CI)‡ (BRCA1 rs16941 T/C vs T/T): 1.36 (0.55, 3.40)
- PFS HR (95% CI) ‡ (BRCA1 rs16941 T/C vs T/T): 0.94 (0.47, 1.88)
- OS HR (95% CI)† (BRCA1 rs16941 T/C vs T/T): 1.13 (0.47, 2.74)
- PFS HR (95% CI) † (BRCA1 rs16941 T/C vs T/T): 0.84 (0.43, 1.62)
- OS median, months (95% CI) (BRCA1 rs16941 T/T): 6.3 (4.4, 15.6+) months
- PFS median, months (95% CI) (BRCA1 rs799917 A/A): 2.7 (2.0, 4.2) months
- OS HR (95% CI)‡ (BRCA1 rs799917 A/A vs G/G): 0.37 (0.05, 3.07)
- PFS HR (95% CI) ‡ (BRCA1 rs799917 A/A vs G/G): 1.66 (0.58, 4.74)
- OS HR (95% CI)† (BRCA1 rs799917 A/A vs G/G): 0.28 (0.04, 2.20)
- PFS HR (95% CI) † (BRCA1 rs799917 A/A vs G/G): 1.06 (0.38, 2.90)
- OS median, months (95% CI) (BRCA1 rs799917 Any A): 8.3 (5.3, 14.8+) months
- PFS median, months (95% CI) (BRCA1 rs799917 Any A): 3.0 (2.0, 4.2) months
- OS HR (95% CI)‡ (BRCA1 rs799917 Any A vs G/G): 1.14 (0.46, 2.82)
- PFS HR (95% CI) ‡ (BRCA1 rs799917 Any A vs G/G): 1.04 (0.54, 2.00)
- OS HR (95% CI)† (BRCA1 rs799917 Any A vs G/G): 0.90 (0.38, 2.15)
- PFS HR (95% CI) † (BRCA1 rs799917 Any A vs G/G): 0.87 (0.47, 1.64)
- OS median, months (95% CI) (BRCA1 rs799917 G/A): 8.1 (3.4, 14.8+) months
- PFS median, months (95% CI) (BRCA1 rs799917 G/A): 3.2 (1.8, 4.6) months
- OS HR (95% CI)‡ (BRCA1 rs799917 G/A vs G/G): 1.36 (0.55, 3.40)
- PFS HR (95% CI) ‡ (BRCA1 rs799917 G/A vs G/G): 0.94 (0.47, 1.88)
- OS HR (95% CI)† (BRCA1 rs799917 G/A vs G/G): 1.13 (0.47, 2.74)
- PFS HR (95% CI) † (BRCA1 rs799917 G/A vs G/G): 0.84 (0.43, 1.62)
- OS median, months (95% CI) (BRCA1 rs799917 G/G): 6.3 (4.4, 15.6+) months
- OS median, months (95% CI) (BRCA2 rs144848 A/A): 8.3 (5.4, 12.4) months
- PFS median, months (95% CI) (BRCA2 rs144848 A/A): 2.7 (2.0, 3.4) months
- PFS median, months (95% CI) (BRCA2 rs144848 A/C): 3.5 (1.5, 4.9) months
- OS HR (95% CI)‡ (BRCA2 rs144848 A/C vs A/A): 0.97 (0.34, 2.76)
- PFS HR (95% CI) ‡ (BRCA2 rs144848 A/C vs A/A): 0.82 (0.39, 1.72)
- OS HR (95% CI)† (BRCA2 rs144848 A/C vs A/A): 0.91 (0.33, 2.57)
- PFS HR (95% CI) † (BRCA2 rs144848 A/C vs A/A): 0.76 (0.37, 1.56)
- OS median, months (95% CI) (BRCA2 rs144848 Any C): 8.1 (2.8, 15.6+) months
- PFS median, months (95% CI) (BRCA2 rs144848 Any C): 3.3 (1.6, 4.6) months
- OS HR (95% CI)‡ (BRCA2 rs144848 Any C vs A/A): 1.14 (0.46, 2.79)
- PFS HR (95% CI) ‡ (BRCA2 rs144848 Any C vs A/A): 0.92 (0.48, 1.78)
- OS HR (95% CI)† (BRCA2 rs144848 Any C vs A/A): 1.07 (0.44, 2.58)
- PFS HR (95% CI) † (BRCA2 rs144848 Any C vs A/A): 0.82 (0.43, 1.54)
- OS median, months (95% CI) (BRCA2 rs144848 C/C): 8.1 (2.7, 8.1+) months
- PFS median, months (95% CI) (BRCA2 rs144848 C/C): 2.7 (0.9, 6.0+) months
- OS HR (95% CI)‡ (BRCA2 rs144848 C/C vs A/A): 1.62 (0.44, 6.02)
- PFS HR (95% CI) ‡ (BRCA2 rs144848 C/C vs A/A): 1.28 (0.47, 3.50)
- OS HR (95% CI)† (BRCA2 rs144848 C/C vs A/A): 1.48 (0.41, 5.34)
- PFS HR (95% CI) † (BRCA2 rs144848 C/C vs A/A): 0.99 (0.38, 2.59)
- OS median, months (95% CI) (CHEK2 rs22236142 Any C): 8.3 (5.4, 15.6+) months
- PFS median, months (95% CI) (CHEK2 rs22236142 Any C): 2.6 (2.1, 3.4) months
- OS HR (95% CI)‡ (CHEK2 rs22236142 Any C vs G/G): 0.66 (0.26, 1.65)
- PFS HR (95% CI) ‡ (CHEK2 rs22236142 Any C vs G/G): 1.15 (0.59, 2.22)
- OS HR (95% CI)† (CHEK2 rs22236142 Any C vs G/G): 0.84 (0.35, 2.00)
- PFS HR (95% CI) † (CHEK2 rs22236142 Any C vs G/G): 1.33 (0.70, 2.50)
- OS median, months (95% CI) (CHEK2 rs22236142 C/C): 7.5 (3.3, 15.6+) months
- PFS median, months (95% CI) (CHEK2 rs22236142 C/C): 2.7 (1.6, 4.4) months
- OS HR (95% CI)‡ (CHEK2 rs22236142 C/C vs G/G): 0.88 (0.28, 2.77)
- PFS HR (95% CI) ‡ (CHEK2 rs22236142 C/C vs G/G): 1.18 (0.50, 2.78)
- OS HR (95% CI)† (CHEK2 rs22236142 C/C vs G/G): 0.93 (0.31, 2.81)
- PFS HR (95% CI) † (CHEK2 rs22236142 C/C vs G/G): 1.15 (0.49, 2.74)
- OS median, months (95% CI) (CHEK2 rs22236142 G/C): 8.3 (4.9, 12.4+) months
- PFS median, months (95% CI) (CHEK2 rs22236142 G/C): 2.5 (1.8, 3.5) months
